Data published in article PMC2248166, “Quantitative peptide binding motifs for 19 human and mouse MHC class I molecules derived using positional scanning combinatorial peptide libraries” (Immunome Research, 2008).

Experiments:
HLA A*3001 = HLA A*3001 (Homo sapiens, UniProt P04439, D140H/D185E/E176W/F33S/G80R/H175R/K168Q/R138E/R41S); assay: biochemical; assay type: binding
HLA A*3201 = HLA A*3201 (Homo sapiens, UniProt P04439, A270S/D101S/D185E/E176V/E277Q/F133L/G103R/G107R/G231S/H175R/I121M/I218V/I322F/K168Q/L105A/L300P/L318F/M331R/P208A/P217A/Q94H/R106L/R138Q/S129P/T104I/T323A/T345S/V100E/V321M/V358M); assay: biochemical; assay type: binding
HLA A*6802 = HLA A*6802 (Homo sapiens, UniProt P04439, A269V/D140Y/D185E/E176V/E277Q/E87N/F33Y/G231S/I121R/I166T/I218V/L180W/L300P/L318F/N151K/P208A/P217A/Q86R/R138H/R169H/S129P/T345S/V36M); assay type: binding
HLA B*0702 = HLA B*0702 (Homo sapiens, UniProt P01889); assay type: binding; settings: positional scanning combinatorial 9-mer library; normalized to 1.0 for the best residue at each position
HLA B*0801 = HLA B*0801 (Homo sapiens, UniProt P01889, A93T/A95T/D138N/E176V/E187T/K202T/Q94N/R180D/S35A/V36M/Y33D/Y91F); assay: biochemical; assay type: binding
HLA B*1501 = HLA B*1501 (Homo sapiens, UniProt P01889, A329T/A93T/A95T/C349S/D201E/D98Y/E187L/E204Q/E69M/E70A/K202T/N87E/Q94N/R155S/R180W/S121R/S35A/S48A/V306I/V36M/Y140S/Y91S); assay: biochemical; assay type: binding
HLA B*1503 = HLA B*1503 (Homo sapiens, UniProt P01889, A329T/A93T/A95T/C349S/D201E/D98Y/E187L/E204Q/K202T/N87E/Q94N/R155S/R180L/S121R/S35A/V306I/V36M/Y140S/Y91S); assay: biochemical; assay type: binding
HLA B*2705 = HLA B*2705 (Homo sapiens, UniProt P01889, D138H/D201E/E176V/E204Q/G107R/H137Y/K202T/N104T/N87E/Q56L/Q94K/R106L/R155S/R180L/S101D/S121N/S48T/Y140D/Y33H/Y91C); assay type: binding; settings: positional scanning combinatorial 9-mer library; normalized to 1.0 for the best residue at each position
HLA B*3501 = HLA B*3501 (Homo sapiens, UniProt P01889, A329T/A93T/A95T/C349S/D201E/D98Y/E176V/E187L/E204Q/E69T/I218V/K202T/L119I/Q94N/R155S/R180L/S121R/S35A/S48A/T118I/V127L/V306I/V36M/Y140S/Y91F); assay type: binding
HLA B*5101 = HLA B*5101 (Homo sapiens, UniProt P01889, A329T/A93T/A95T/C349S/D138N/D201E/D98Y/E187L/E204Q/E69T/G107R/I218V/K202T/L105A/L119W/N104I/Q94N/R106L/R155S/R180L/S101N/S121T/S35A/S48A/V306I/V36M/Y195H/Y91F); assay type: binding
HLA B*5301 = HLA B*5301 (Homo sapiens, UniProt P01889, A329T/A93T/A95T/C349S/D201E/D98Y/E176V/E187L/E204Q/E69T/G107R/I218V/K202T/L105A/L119I/N104I/Q94N/R106L/R155S/R180L/S101N/S121R/S35A/S48A/T118I/V127L/V306I/V36M/Y140S/Y91F); assay type: binding
HLA B*5401 = HLA B*5401 (Homo sapiens, UniProt P01889, A329T/C349S/D138N/D201E/E176V/E187T/E204Q/E69G/I76V/K202T/L119W/R155S/R180L/S121T/S35A/S48A/V127L/V306I/V36M/Y140L); assay type: binding
HLA B*5801 = HLA B*5801 (Homo sapiens, UniProt P01889, A329T/C349S/D201E/D98Y/E176V/E187L/E204Q/E69T/G107R/I218V/I90N/K202T/L105A/L119I/N104I/N87E/Q89R/Q94S/R106L/R155S/R180L/R86G/S101N/S121R/S35A/S48A/T118I/V127L/V306I/V36M/Y140S/Y91M); assay type: binding
HLA B*5802 = HLA B*5802 (Homo sapiens, UniProt P01889, A329T/C349S/D201E/D98Y/E176V/E187L/E204Q/E69T/G107R/I218V/I90N/K202T/L105A/N104I/N87E/Q89R/Q94S/R106L/R155S/R180L/R86G/S101N/S121W/S35A/S48A/V127L/V306I/V36M/Y140S/Y91M); assay type: binding
H-2 D^b = H-2 D^b (Mus musculus, UniProt P01899); assay type: binding
Sequence of H-2 D^b (P01887 21-119): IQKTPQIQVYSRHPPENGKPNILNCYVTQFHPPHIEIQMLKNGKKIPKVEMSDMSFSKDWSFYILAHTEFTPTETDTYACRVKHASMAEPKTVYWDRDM
Sequence of H-2 D^b (P01899 25-362): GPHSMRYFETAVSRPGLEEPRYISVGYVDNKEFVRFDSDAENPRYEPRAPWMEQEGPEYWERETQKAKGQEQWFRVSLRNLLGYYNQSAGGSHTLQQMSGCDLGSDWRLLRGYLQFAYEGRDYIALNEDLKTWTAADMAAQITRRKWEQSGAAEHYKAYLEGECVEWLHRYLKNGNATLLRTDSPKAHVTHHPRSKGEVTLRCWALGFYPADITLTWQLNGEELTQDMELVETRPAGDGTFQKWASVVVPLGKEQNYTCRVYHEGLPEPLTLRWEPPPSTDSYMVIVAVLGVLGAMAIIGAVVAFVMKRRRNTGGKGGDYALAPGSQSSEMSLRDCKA

H-2 D^d = H-2 D^d (Mus musculus, UniProt P01900); assay type: binding
Sequence of H-2 D^d (P01900 whole entry, looked up): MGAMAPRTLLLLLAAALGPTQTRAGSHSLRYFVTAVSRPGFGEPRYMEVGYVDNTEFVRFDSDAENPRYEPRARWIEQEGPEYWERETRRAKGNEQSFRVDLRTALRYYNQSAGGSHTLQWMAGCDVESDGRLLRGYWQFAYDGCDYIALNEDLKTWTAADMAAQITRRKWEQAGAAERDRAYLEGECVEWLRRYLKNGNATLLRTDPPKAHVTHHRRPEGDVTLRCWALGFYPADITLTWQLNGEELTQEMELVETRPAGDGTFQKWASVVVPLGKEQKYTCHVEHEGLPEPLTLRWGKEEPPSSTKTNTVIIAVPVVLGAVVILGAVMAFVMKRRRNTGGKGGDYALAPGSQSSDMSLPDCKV

H-2 K^k = H-2 K^k (Mus musculus, UniProt P04223); assay type: binding
Sequence of H-2 K^k (P01887 21-119): as the sequence (P01887 21-119) above
Sequence of H-2 K^k (P04223 22-369): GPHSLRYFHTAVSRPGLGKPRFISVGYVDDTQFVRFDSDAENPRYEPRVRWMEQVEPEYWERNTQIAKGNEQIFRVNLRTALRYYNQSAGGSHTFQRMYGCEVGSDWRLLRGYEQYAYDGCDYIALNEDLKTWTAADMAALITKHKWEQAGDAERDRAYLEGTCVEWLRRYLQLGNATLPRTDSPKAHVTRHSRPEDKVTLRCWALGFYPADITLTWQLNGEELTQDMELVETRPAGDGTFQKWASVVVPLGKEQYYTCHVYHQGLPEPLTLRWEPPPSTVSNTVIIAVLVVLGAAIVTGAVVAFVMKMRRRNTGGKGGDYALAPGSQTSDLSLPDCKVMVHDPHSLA

HLA A*0201 = HLA A*0201 (Homo sapiens, UniProt P04439, D140Y/D185E/D98H/E176V/E277Q/G131W/G231S/I119V/I121R/I166T/I218V/L300P/L318F/N151K/N90K/P208A/P217A/Q86G/Q94H/R138H/R169H/T345S); settings: positional scanning combinatorial 9-mer library; normalized to 1.0 for the best residue at each position

**Q.** For IXXXXXXXX [3064.0008], which “Normalized average relative binding affinity (ARB), HLA A*3001” value (HLA A*3001) is on record?
**A.** Its value is 0.11.

**Q.** What about the “Normalized average relative binding affinity (ARB), HLA A*3201” value (HLA A*3201) of the same sequence?
**A.** The value was 0.47.

**Q.** And the “Normalized average relative binding affinity (ARB), HLA A*6802” value (HLA A*6802)?
**A.** The value was 0.076.

**Q.** And the “Normalized average relative binding affinity (ARB), HLA B*0702” value (HLA B*0702)?
**A.** Its value is 0.42.

**Q.** What about the “Normalized average relative binding affinity (ARB), HLA B*0801” value (HLA B*0801) of the same sequence?
**A.** The value was 0.068.

**Q.** And the “Normalized average relative binding affinity (ARB), HLA B*1501” value (HLA B*1501)?
**A.** Its value is 1.0.

**Q.** And the “Normalized average relative binding affinity (ARB), HLA B*1503” value (HLA B*1503)?
**A.** The value was 0.51.

**Q.** What about the “Normalized average relative binding affinity (ARB), HLA B*2705” value (HLA B*2705) of the same sequence?
**A.** The value was 0.22.

**Q.** What about the “Normalized average relative binding affinity (ARB), HLA B*3501” value (HLA B*3501) of the same sequence?
**A.** The value was 0.30.

**Q.** What about the “Normalized average relative binding affinity (ARB), HLA B*5101” value (HLA B*5101) of the same sequence?
**A.** The value was 0.23.

**Q.** And the “Normalized average relative binding affinity (ARB), HLA B*5301” value (HLA B*5301)?
**A.** Its value is 0.15.

**Q.** And the “Normalized average relative binding affinity (ARB), HLA B*5401” value (HLA B*5401)?
**A.** The value was 0.27.

**Q.** What about the “Normalized average relative binding affinity (ARB), HLA B*5801” value (HLA B*5801) of the same sequence?
**A.** Its value is 0.35.

**Q.** What about the “Normalized average relative binding affinity (ARB), HLA B*5802” value (HLA B*5802) of the same sequence?
**A.** Its value is 0.17.

**Q.** What about the “Normalized average relative binding affinity (ARB), H-2 Db” value (H-2 D^b) of the same sequence?
**A.** Its value is 0.13.

**Q.** And the “Normalized average relative binding affinity (ARB), H-2 Dd” value (H-2 D^d)?
**A.** The value was 0.39.

**Q.** And the “Normalized average relative binding affinity (ARB), H-2 Kk” value (H-2 K^k)?
**A.** The value was 0.27.

**Q.** What about the “Normalized average relative binding affinity (ARB), HLA A*0201” value (HLA A*0201) of the same sequence?
**A.** Its value is 0.12.

**Q.** What does the source list for XCXXXXXXX [3064.0022]?
**A.** Normalized average relative binding affinity (ARB), HLA A*3001 (HLA A*3001): 0.15; Normalized average relative binding affinity (ARB), HLA A*3201 (HLA A*3201): 0.028; Normalized average relative binding affinity (ARB), HLA A*6802 (HLA A*6802): 0.0076; Normalized average relative binding affinity (ARB), HLA B*0702 (HLA B*0702): 0.0028; Normalized average relative binding affinity (ARB), HLA B*0801 (HLA B*0801): 0.028; Normalized average relative binding affinity (ARB), HLA B*1501 (HLA B*1501): 0.027; Normalized average relative binding affinity (ARB), HLA B*1503 (HLA B*1503): 0.0028; Normalized average relative binding affinity (ARB), HLA B*2705 (HLA B*2705): 0.0016; Normalized average relative binding affinity (ARB), HLA B*3501 (HLA B*3501): 0.067; Normalized average relative binding affinity (ARB), HLA B*5101 (HLA B*5101): 0.079; Normalized average relative binding affinity (ARB), HLA B*5301 (HLA B*5301): 0.019; Normalized average relative binding affinity (ARB), HLA B*5401 (HLA B*5401): 0.0051; Normalized average relative binding affinity (ARB), HLA B*5801 (HLA B*5801): 0.013; Normalized average relative binding affinity (ARB), HLA B*5802 (HLA B*5802): 0.051; Normalized average relative binding affinity (ARB), H-2 Db (H-2 D^b): 0.22; Normalized average relative binding affinity (ARB), H-2 Dd (H-2 D^d): 0.013; Normalized average relative binding affinity (ARB), H-2 Kk (H-2 K^k): 0.010; Normalized average relative binding affinity (ARB), HLA A*0201 (HLA A*0201): 0.0016

**Q.** Which results are given for XLXXXXXXX [3064.0030]?
**A.** Normalized average relative binding affinity (ARB), HLA A*3001 (HLA A*3001): 0.16; Normalized average relative binding affinity (ARB), HLA A*3201 (HLA A*3201): 0.29; Normalized average relative binding affinity (ARB), HLA A*6802 (HLA A*6802): 0.097; Normalized average relative binding affinity (ARB), HLA B*0702 (HLA B*0702): 0.016; Normalized average relative binding affinity (ARB), HLA B*0801 (HLA B*0801): 0.72; Normalized average relative binding affinity (ARB), HLA B*1501 (HLA B*1501): 0.52; Normalized average relative binding affinity (ARB), HLA B*1503 (HLA B*1503): 0.18; Normalized average relative binding affinity (ARB), HLA B*2705 (HLA B*2705): 0.0053; Normalized average relative binding affinity (ARB), HLA B*3501 (HLA B*3501): 0.035; Normalized average relative binding affinity (ARB), HLA B*5101 (HLA B*5101): 0.022; Normalized average relative binding affinity (ARB), HLA B*5301 (HLA B*5301): 0.035; Normalized average relative binding affinity (ARB), HLA B*5401 (HLA B*5401): 0.0037; Normalized average relative binding affinity (ARB), HLA B*5801 (HLA B*5801): 0.043; Normalized average relative binding affinity (ARB), HLA B*5802 (HLA B*5802): 0.13; Normalized average relative binding affinity (ARB), H-2 Db (H-2 D^b): 0.18; Normalized average relative binding affinity (ARB), H-2 Dd (H-2 D^d): 0.035; Normalized average relative binding affinity (ARB), H-2 Kk (H-2 K^k): 0.062; Normalized average relative binding affinity (ARB), HLA A*0201 (HLA A*0201): 1.0
